Reference: ChEMBL document CHEMBL3286223, “Anticancer phytochemical analogs 37: synthesis, characterization, molecular docking and cytotoxicity of novel plumbagin hydrazones against breast cancer cells” (Bioorg Med Chem Lett, 2014)
Calls of active or inactive are those of the source. No cut-off for these calls is given here.

What was measured:
MCF7 = assay: Cytotoxicity against human MCF7 cells expressing estrogen and progesterone receptor after 72 hrs by MTT assay; type: functional, cell-based
[1] = Cytotoxicity against human MCF10A cells after 72 hrs by MTT assay; type: cell-based; conditions: mcf-10a
MDA-MB-231 = assay: Cytotoxicity against estrogen receptor-deficient human MDA-MB-231 cells after 72 hrs by MTT assay; type: functional, cell-based; conditions: MDA-MB-231, 72 h
[2] = molecular target: Transcription factor p65 (Homo sapiens) (UniProt Q04206); assay: Reduction of NFkappaB p65 expression in estrogen receptor-deficient human MDA-MB-231 cells at 5 uM after 72 hrs by Western blot analysis; type: cell-based
Chain of Transcription factor p65 (Homo sapiens) (Q04206 whole entry): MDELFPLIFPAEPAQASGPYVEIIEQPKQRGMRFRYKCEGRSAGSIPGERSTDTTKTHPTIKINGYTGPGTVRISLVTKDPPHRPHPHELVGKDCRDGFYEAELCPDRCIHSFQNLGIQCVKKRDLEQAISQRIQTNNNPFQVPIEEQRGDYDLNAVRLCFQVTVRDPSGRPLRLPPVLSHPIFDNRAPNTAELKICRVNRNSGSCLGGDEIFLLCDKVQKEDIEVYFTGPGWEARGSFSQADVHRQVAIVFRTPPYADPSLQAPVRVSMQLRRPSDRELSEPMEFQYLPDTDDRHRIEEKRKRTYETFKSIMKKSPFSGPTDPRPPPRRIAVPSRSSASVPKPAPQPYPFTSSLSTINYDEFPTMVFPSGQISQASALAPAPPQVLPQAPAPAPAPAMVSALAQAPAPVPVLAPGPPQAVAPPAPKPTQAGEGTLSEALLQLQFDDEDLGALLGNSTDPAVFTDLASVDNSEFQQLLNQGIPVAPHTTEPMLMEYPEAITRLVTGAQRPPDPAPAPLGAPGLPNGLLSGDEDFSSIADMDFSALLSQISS

SMILES | Activity (MCF7) | Activity [1] | IC50 (MDA-MB-231) [nM] | Activity [2]
CC1=C/C(=N\NC(N)=S)c2c(O)cccc2C1=O | Active | Non-toxic | – | –
CC1=C/C(=N\NC(=O)Cc2c[nH]c3ccccc23)c2c(O)cccc2C1=O | Active | Non-toxic | 1500 | Active
CC1=C/C(=N\NC(=O)c2cc3ccccc3cc2O)c2c(O)cccc2C1=O | Active | Non-toxic | 3200 | Active
CC(=O)N/N=C1\C=C(C)C(=O)c2cccc(O)c21 | Active | Non-toxic | – | –
CC1=CC(=O)c2c(O)cccc2C1=O | Active | – | – | –
